Data reported in US12065446B2, “Inhibitors of Bruton's tyrosine kinase and method of their use” (JANSSEN PHARMACEUTICA NV, priority 2015, dated 2024).

Molecular target: unphosphorylated-BTK kinase domain (UP-BTK), GST-tagged human BTK (389-659aa) (Homo sapiens (Human), UniProt Q06187)
Assay: BTK kinase lanthascreen binding assay
Settings: competition with 50 nM Tracer 236, 60 minutes; pIC50 = negative log of the IC50 in molar
Procedure: BTK kinase lanthascreen binding assay: A BTK kinase lanthascreen binding assay monitors compound binding to unphosphorylated-BTK kinase domain (UP-BTK), by competing with a fluorescent labeled tracer. […] Data were analyzed using Xlfit™ version 5.3 from ID Business Solutions (Guildford), Microsoft Excel add-in. pIC50 refers to the negative log of the IC50 in molar.

unphosphorylated-BTK kinase domain (UP-BTK), GST-tagged human BTK (389-659aa), sequence (Q06187 389-659): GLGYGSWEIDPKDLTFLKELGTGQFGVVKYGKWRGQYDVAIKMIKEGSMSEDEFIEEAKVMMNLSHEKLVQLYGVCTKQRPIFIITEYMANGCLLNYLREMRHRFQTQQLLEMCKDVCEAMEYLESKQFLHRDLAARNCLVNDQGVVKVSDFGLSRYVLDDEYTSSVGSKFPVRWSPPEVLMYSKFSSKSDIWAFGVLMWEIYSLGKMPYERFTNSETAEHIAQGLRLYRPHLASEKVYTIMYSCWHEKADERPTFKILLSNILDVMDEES

C=CC(=O)N[C@@H]1CC[C@@H](NC(=O)c2sc3nccc4c3c2NC(=O)N4c2ccc(Oc3ccccc3)nc2)C1 (racemic) [Example 188, N-((1RS, 3RS)-3-Acrylamidocyclopentyl)-4-oxo-5-(6-phenoxypyridin-3-yl)-4,5-dihydro-3H-1-thia-3,5,8-triazaacenaphthylene-2-carboxamide]
BTK_I_binding pIC50: 7.11
